Test results published in PMC7614775 (Nature chemical biology, 2022).

Legend:
TYK2_C838 = TYK2_C838 (Homo sapiens, UniProt P29597); assay: Targeted MS-ABPP target engagement (TE50) in human cell lysates; format: binding; settings: read-out: target engagement value (TE50), TYK2_C838, 1 h, in vitro
JAK1_C817 = JAK1_C817 (Homo sapiens, UniProt P23458); assay: as above; format: binding
[1] = system: IFNα-stimulated STAT1 phosphorylation; assay: HTRF phospho-STAT1 assay in human PBMCs; format: cell-based; settings: compound 2 h, IFNα 100 ng/mL 30 min
TYK2 (C838) = settings: human T cells in situ, 50 µM, 1 h; cited from earlier work
JAK1 (C817) = settings: human T cells in situ, 50 µM, 1 h; cited from earlier work
[2] = system: recombinant JAK1 (WT, C810A, C817A); assay: Gel-based ABPP in 22Rv1 cells; format: binding, human; settings: 0.1 μM, 2 h, in situ
[3] = molecular target: recombinant TYK2 (WT, C838A) (Homo sapiens, UniProt P29597); assay: Gel-based ABPP in 22Rv1 cells; format: binding; settings: 0.1 μM, 2 h, in situ
Sequence of recombinant TYK2 (WT, C838A) (Homo sapiens, UniProt P29597) (P29597 whole entry C838A): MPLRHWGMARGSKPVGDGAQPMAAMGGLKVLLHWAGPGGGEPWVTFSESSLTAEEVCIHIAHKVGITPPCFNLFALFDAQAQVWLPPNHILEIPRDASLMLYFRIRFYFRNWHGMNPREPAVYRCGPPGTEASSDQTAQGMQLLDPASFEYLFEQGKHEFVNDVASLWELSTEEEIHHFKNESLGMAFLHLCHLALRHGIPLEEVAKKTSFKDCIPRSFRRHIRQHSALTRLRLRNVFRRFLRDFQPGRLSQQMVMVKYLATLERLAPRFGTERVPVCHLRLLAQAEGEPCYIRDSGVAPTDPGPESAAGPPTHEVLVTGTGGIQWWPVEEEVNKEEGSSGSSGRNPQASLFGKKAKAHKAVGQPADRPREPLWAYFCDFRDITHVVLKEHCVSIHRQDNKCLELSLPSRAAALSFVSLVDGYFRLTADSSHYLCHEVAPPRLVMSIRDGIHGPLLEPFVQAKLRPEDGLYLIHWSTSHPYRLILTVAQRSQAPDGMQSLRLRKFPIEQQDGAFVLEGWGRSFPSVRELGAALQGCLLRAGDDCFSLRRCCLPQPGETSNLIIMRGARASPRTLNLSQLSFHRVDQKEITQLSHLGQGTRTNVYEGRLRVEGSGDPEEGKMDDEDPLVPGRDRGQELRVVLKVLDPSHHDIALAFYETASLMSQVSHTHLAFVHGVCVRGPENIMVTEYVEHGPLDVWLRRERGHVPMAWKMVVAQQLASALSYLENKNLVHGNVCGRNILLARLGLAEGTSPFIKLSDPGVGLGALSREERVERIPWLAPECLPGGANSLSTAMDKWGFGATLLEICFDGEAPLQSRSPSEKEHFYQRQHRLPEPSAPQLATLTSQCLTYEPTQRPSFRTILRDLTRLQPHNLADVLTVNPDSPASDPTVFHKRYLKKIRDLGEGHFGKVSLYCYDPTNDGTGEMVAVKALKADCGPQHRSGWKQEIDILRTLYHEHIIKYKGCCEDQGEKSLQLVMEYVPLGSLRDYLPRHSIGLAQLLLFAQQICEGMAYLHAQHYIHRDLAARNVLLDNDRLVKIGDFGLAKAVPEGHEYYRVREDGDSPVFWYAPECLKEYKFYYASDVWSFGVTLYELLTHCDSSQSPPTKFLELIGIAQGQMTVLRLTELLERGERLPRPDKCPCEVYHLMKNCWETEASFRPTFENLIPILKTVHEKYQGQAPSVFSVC

[4] = molecular target: recombinant TYK2 (WT, C838A) (Homo sapiens, UniProt P29597, C838A); assay: Gel-based ABPP in 22Rv1 cells; format: binding; settings: 0.1 μM, 2 h, in situ
Sequence of recombinant TYK2 (WT, C838A) (Homo sapiens, UniProt P29597, C838A) (P29597 whole entry C838A): as above

[5] = system: IL-12-STAT4 signaling (TYK2/JAK2-dependent); assay: Phospho-STAT western blot in human PBMC-derived T-blasts; format: cell-based; settings: compound 2 h, IL-12 12.5 ng/mL 15 min
[6] = system: IFNα-stimulated STAT1 phosphorylation; assay: Ex vivo phospho-STAT assay, splenocytes of treated mice; format: in vivo, mouse; settings: splenocytes of mice given 25 mg/kg s.c., 2 × 4 h
[7] = In vivo pharmacokinetic analysis; settings: male, CD-1 (ICR), mouse, plasma
[8] = system: IL-2-stimulated STAT5 phosphorylation; assay: Phospho-STAT western blot in human PBMCs; format: cell-based; settings: compound 2 h, IL-2 20 U/mL 15 min
[9] = system: IL-2-dependent STAT5 phosphorylation; assay: Ex vivo phospho-STAT assay, splenocytes of treated mice; format: in vivo, mouse; settings: splenocytes of mice given 25 mg/kg s.c., 2 × 4 h
GM-CSF-STAT5 signaling [10] = assay: as above; format: in vivo, mouse; settings: splenocytes of mice given 25 mg/kg s.c., 2 × 4 h
[11] = system: IL-6-stimulated STAT3 phosphorylation; assay: Phospho-STAT western blot in human PBMCs; format: cell-based; settings: compound 2 h, IL-6 25 ng/mL 30 min
[12] = system: IL-2-dependent STAT5 phosphorylation; assay: Phospho-STAT western blot in mouse splenocytes; format: cell-based; settings: 0.01–0.1 µM
GM-CSF-STAT5 signaling [13] = assay: Phospho-STAT western blot in mouse splenocytes; format: cell-based
IL-12-STAT4 signaling = assay: Phospho-STAT western blot in mouse splenocytes; format: cell-based
IL-6-STAT3 signaling = assay: Ex vivo phospho-STAT assay, splenocytes of treated mice; format: in vivo, mouse; settings: splenocytes of mice given 25 mg/kg s.c., 2 × 4 h
[14] = system: GM-CSF stimulated STAT5 phosphorylation (JAK2-dependent); assay: Phospho-STAT western blot in human PBMCs; format: cell-based; settings: compound 2 h, GM-CSF 15 min
[15] = system: IFNα-stimulated STAT1 phosphorylation; assay: Phospho-STAT western blot in human PBMCs; format: cell-based; settings: compound 2 h, IFNα 100 ng/mL 30 min
JAK1_C816 = JAK1_C816 (Mus musculus, UniProt P52332); assay: In vivo target engagement in spleen by targeted MS-ABPP; settings: mice, s.c. 25 or 50 mg/kg, two doses over an 8 h period
Sequence of JAK1_C816 (P52332 whole entry): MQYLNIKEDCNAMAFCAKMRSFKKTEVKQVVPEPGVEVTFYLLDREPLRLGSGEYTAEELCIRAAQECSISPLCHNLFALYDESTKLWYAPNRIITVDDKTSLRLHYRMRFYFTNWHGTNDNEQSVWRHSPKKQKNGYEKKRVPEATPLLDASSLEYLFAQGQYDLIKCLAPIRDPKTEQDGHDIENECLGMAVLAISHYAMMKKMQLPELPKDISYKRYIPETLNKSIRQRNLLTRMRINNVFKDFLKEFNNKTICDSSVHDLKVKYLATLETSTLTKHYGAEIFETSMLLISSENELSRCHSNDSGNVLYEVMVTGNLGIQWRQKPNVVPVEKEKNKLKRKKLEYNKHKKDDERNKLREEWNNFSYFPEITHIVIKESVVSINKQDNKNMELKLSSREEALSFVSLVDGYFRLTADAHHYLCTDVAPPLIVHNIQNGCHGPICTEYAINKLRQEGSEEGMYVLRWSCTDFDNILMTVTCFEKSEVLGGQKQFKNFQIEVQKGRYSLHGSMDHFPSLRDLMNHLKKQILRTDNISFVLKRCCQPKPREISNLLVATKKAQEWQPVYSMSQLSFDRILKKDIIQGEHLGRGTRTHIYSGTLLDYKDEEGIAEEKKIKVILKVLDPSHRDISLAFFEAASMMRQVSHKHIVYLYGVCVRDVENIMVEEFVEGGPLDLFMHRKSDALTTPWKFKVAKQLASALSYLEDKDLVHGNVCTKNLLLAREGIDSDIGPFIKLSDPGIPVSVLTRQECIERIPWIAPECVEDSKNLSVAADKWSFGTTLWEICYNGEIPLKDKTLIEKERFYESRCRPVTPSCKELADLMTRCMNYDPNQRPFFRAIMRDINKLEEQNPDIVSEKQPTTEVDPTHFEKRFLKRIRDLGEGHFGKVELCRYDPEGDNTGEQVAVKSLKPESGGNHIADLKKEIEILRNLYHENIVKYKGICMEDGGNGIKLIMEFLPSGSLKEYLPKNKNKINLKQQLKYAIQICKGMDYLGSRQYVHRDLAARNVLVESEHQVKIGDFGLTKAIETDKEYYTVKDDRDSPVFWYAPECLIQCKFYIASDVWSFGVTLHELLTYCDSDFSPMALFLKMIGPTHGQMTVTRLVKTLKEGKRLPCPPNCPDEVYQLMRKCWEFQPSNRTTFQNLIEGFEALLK

[16] = system: IFNα-dependent STAT1 phosphorylation; assay: Phospho-STAT western blot in mouse splenocytes; format: cell-based; settings: 0.01–0.1 µM
[17] = system: IFNγ-stimulated STAT1 phosphorylation; assay: Phospho-STAT western blot in 22Rv1 cells expressing JAK1 variants; format: cell-based, human; settings: WT-JAK1 transfected 22Rv1 cells; 1 μM, 2 h
[18] = system: IFNα-stimulated STAT1 phosphorylation; assay: as above; format: cell-based, human; settings: cells expressing WT-, C810A-, or C817A-JAK1; 2 µM, 2 h
[19] = system: αCD3/αCD28-stimulated primary human T cells (CD25, CD69); assay: T-cell activation analysis by flow cytometry; format: cell-based; settings: αCD3/αCD28 co-stimulation, 24 h
[20] = system: IL-6-stimulated STAT3 phosphorylation; assay: Phospho-STAT western blot in mouse splenocytes; format: cell-based; settings: WT mouse splenocytes
primary human T cells = assay: T-cell viability (Near IR Live/Dead stain); format: cell-based; settings: 24 h
[21] = system: IFNα-stimulated STAT1 phosphorylation (TYK2-dependent); assay: Phospho-STAT western blot in 22Rv1 cells expressing TYK2 variants; format: cell-based, human; settings: 2 h
[22] = molecular target: JAK1 phosphorylation (pJAK1; Y1034/Y1035) (Homo sapiens, UniProt P23458); assay: JAK1 phosphorylation western blot in 22Rv1 cells expressing JAK1 variants; format: cell-based; settings: 22Rv1 cells transfected with WT or C817A-JAK1; independent of JAK1_C817
Sequence of JAK1 phosphorylation (pJAK1; Y1034/Y1035) (P23458 whole entry): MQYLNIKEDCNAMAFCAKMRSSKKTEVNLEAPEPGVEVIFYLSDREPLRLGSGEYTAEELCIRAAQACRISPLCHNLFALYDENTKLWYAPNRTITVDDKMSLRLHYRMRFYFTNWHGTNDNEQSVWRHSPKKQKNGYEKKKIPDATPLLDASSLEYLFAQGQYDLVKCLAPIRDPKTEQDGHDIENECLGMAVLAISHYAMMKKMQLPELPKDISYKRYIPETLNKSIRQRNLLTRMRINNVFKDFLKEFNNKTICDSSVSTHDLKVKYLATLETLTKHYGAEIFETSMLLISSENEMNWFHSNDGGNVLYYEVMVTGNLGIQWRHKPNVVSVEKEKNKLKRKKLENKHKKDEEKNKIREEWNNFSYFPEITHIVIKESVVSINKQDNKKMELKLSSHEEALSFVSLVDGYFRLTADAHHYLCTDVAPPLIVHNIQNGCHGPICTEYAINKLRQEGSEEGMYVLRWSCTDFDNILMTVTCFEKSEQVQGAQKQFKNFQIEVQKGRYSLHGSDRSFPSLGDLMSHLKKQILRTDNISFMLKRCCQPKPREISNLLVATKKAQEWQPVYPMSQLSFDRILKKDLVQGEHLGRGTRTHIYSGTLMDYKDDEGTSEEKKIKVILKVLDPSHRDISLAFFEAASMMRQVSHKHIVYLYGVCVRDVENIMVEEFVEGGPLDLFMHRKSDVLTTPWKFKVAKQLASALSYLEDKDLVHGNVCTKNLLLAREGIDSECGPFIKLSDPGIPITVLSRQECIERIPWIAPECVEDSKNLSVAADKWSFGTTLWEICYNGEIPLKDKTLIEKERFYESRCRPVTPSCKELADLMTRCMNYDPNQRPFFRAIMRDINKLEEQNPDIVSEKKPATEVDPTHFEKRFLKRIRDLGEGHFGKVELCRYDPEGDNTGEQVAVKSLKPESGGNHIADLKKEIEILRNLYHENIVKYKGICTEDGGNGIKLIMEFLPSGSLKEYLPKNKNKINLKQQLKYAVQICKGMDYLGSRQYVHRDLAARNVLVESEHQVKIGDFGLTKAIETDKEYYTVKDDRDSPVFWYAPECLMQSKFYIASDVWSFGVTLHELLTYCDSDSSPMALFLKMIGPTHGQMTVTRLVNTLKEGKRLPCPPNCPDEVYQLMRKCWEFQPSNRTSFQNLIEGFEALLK

[23] = molecular target: JAK1 trans-phosphorylation (Homo sapiens, UniProt P23458); assay: Trans-phosphorylation assay in 22Rv1 cells; format: cell-based; settings: cells expressing active WT-JAK1-FLAG; 2 µM, 2 h
Sequence of JAK1 trans-phosphorylation (P23458 whole entry): as above

Sequence of JAK1_C817 (P23458 whole entry): as above
Sequence of TYK2_C838 (P29597 whole entry): as the sequence (P29597 whole entry C838A) above, with A838C counted along it

CC#CC(=O)N1CCCC(c2ccc(Cl)cc2)C1 (single isomer, unassigned; (-)) [(−)-1a]
IC50 (TYK2_C838): 45000 nM
IC50 (JAK1_C817; read-out: target engagement value (TE50), JAK1_C817, 1 h compound treatment of human PBMC or Jurkat cell proteome): 2100 nM
IC50 ([1]; read-out: IC50, IFNα-stimulated STAT1 phosphorylation (HTRF)): 1400 nM

CS(=O)(=O)N1CC[C@@H](C#CC(=O)N2CCC[C@H](c3ccc(Cl)c(Cl)c3)C2)C1 [5b]
change of TE50 with preincubation time (JAK1_C817; Jurkat T-cell lysate, 10, 30 and 60 minutes): time-dependent decreases
potency compared with the corresponding diastereomers (5c and 5d) (JAK1_C817; TE50 and pSTAT pIC50): substantially more potent

COc1ccc2c(c1)CCCN2C(=O)CCl [KB02]
engagement of TYK2 C838 (TYK2 (C838)): substantially engaged
engagement of JAK1 C817 (JAK1 (C817)): substantially engaged

C=CC(=O)N(c1ccccc1)c1ccc(Br)cc1 [KB05]
engagement of TYK2 C838 (TYK2 (C838)): substantially engaged
engagement of JAK1 C817 (JAK1 (C817)): substantially engaged

C#CCCS(=O)(=O)N1CCC(C#CC(=O)N2CCCC(c3ccc(Cl)c(Cl)c3)C2)C1 (stereo not drawn) [alkyne probe 6]
probe labeling of WT- and C810A-JAK1 [2]: reacted
probe labeling of WT-TYK2 [3]: reacted
probe labeling of C838A-TYK2 [4]: but not a C838A-TYK2 mutant

CC#CC(=O)N1CCCC(c2ccc(Cl)cc2)C1 (stereo not drawn) [compound 1]
target engagement value (TE50), JAK1_C817 (JAK1_C817; 1 h compound treatment of human PBMC or Jurkat cell proteome): ~two-fold less active
IC50, IFNα-stimulated STAT1 phosphorylation (HTRF) [1]: ~two-fold less active

CS(=O)(=O)N1CCC(C#CC(=O)N2CCCC(c3ccc(Cl)c(Cl)c3)C2)C1 (stereo not drawn) [compound 5]
effect on IL-12-STAT4 signaling [5]: sparing
IFNα-stimulated STAT1 phosphorylation vs vehicle-treated mice [6]: substantial impairments
AUC(0-t) ([7]; iv, 1 mg/kg): 149 ng·h/mL
Cmax ([7]; iv, 1 mg/kg): 1610 ng/mL
clearance ([7]; iv, 1 mg/kg): 112 mL/min/kg
half-life ([7]; iv, 1 mg/kg): 9.18 min
AUC(0-t) ([7]; sc, 25 mg/kg): 2930 ng·h/mL
Cmax ([7]; sc, 25 mg/kg): 3380 ng/mL
bioavailability ([7]; sc, 25 mg/kg): 78.3%
half-life ([7]; sc, 25 mg/kg): 21.6 min
effect on IL-2-pSTAT5 [8]: potently inhibited
IL-2-dependent STAT5 phosphorylation vs vehicle-treated mice [9]: not substantially altered
GM-CSF-STAT5 signaling vs vehicle-treated mice (GM-CSF-STAT5 signaling [10]): unaffected
effect on IL-6-pSTAT3 [11]: potently inhibited
effect on IL-2-dependent STAT5 phosphorylation [12]: inhibited
effect on GM-CSF-STAT5 signaling (GM-CSF-STAT5 signaling [13]): sparing
effect on IL-12-STAT4 signaling (IL-12-STAT4 signaling): sparing
IL-6-STAT3 signaling vs vehicle-treated mice (IL-6-STAT3 signaling): unaffected
effect on GM-CSF stimulated STAT5 phosphorylation [14]: sparing
effect on IFNα-pSTAT1 [15]: potently inhibited
engagement of JAK1_C816 in spleen (JAK1_C816): 75%
effect on IFNα-dependent STAT1 phosphorylation [16]: inhibited

C[C@@H]1CCN(C(=O)CC#N)C[C@@H]1N(C)c1ncnc2[nH]ccc12 [tofacitinib, reference compound]
effect on IFNγ-stimulated STAT1 phosphorylation [17]: completely inhibited
effect on IFNα-stimulated pSTAT1 [18]: equivalently blocked
early-stage activation marker CD69 [19]: Neither compound affected
effect on IL-6-stimulated STAT3 phosphorylation [20]: suppressed
effect on IL-2-pSTAT5 [8]: blocked
effect on IL-6-pSTAT3 [11]: blocked
effect on IFNα-pSTAT1 [15]: blocked
T-cell viability (primary human T cells): Neither compound affected

CC[C@@H]1CN(C(=O)NCC(F)(F)F)C[C@@H]1c1cnc2cnc3[nH]ccc3n12 [upadacitinib, reference compound]
effect on IFNγ-stimulated STAT1 phosphorylation [17]: completely inhibited
effect on IL-6-stimulated STAT3 phosphorylation [20]: suppressed

deucravacitinib [BMS-986165, reference compound]
effect on IFNα-induced STAT1 phosphorylation ([21]; C838A-TYK2 expressing 22Rv1 cells): blocked
effect on IFNα-induced STAT1 phosphorylation ([21]; WT-TYK2 expressing 22Rv1 cells): blocked
effect on IFNγ-stimulated STAT1 phosphorylation [17]: Neither VVD-118313 nor the TYK2 inhibitor BMS-986165 altered
effect on IL-12-STAT4 signaling [5]: inhibited
effect on JAK1 phosphorylation [22]: suppressed
effect on trans-phosphorylation of inactive JAK1-HA variants [23]: blocked JAK1 trans-phosphorylation in a C817-independent manner
effect on IL-6-stimulated STAT3 phosphorylation [20]: suppressed
effect on GM-CSF stimulated STAT5 phosphorylation [14]: inactive
